Key:
[1] = Profiling: penetration of oxygen through candidate solution, measured with an OX10 oxygen microsensor; conditions: 0.1 M solution in propylene carbonate
Description: The penetration of oxygen through the solution of the candidates was determined using an OX10 oxygen microsensor from Unisense A/S in conjunction with a microprofiling laboratory stand.
A small capillary, cautiously filled with candidate solution in order to avoid bulk oxidation, was placed underneath the tip of the oxygen microsensor. The microprofiling stand was remotely controlled by the bundled software in order to move the microelectrode tip with five to ten micrometers between each concentration measurement. The microelectrode was calibrated prior to each candidate measurement using air-bubbled demineralised water and oxygen-free alkaline ascorbic acid solution.
The microsensor was used to profile oxygen-free alkaline ascorbic acid solution prior to and after measurement of each candidate to 1) ensure that physical damage during candidate measurement could be detected and to 2) provide baseline signal for normalisation of candidate profiles.
Each candidate profile was subtracted the baseline signal and normalised with respect to surface oxygen concentration in order to assess the candidate oxygen removal efficiency. A normalised signal of unity equals surface oxygen concentration and a normalised signal of 0.01 equals a dissolved oxygen concentration of 1 % of surface concentration.

[2] = Solubility test of oxygen scavenger candidates (solvent added for a final 1 M, visual inspection of remaining solid); assay type: physicochemical; conditions: stated as substantially lower than 1 M
Description: In other cases, solubility tests with acetonitrile instead of propylene carbonate was performed.
In the case that solids remained after addition of solvent and vigorous stirring, the solubility of a candidate is assessed by visual inspection of the amount of remaining compound versus the amount of compound prior to solvent addition. In the case of a commercially available candidate dissolved in tetrahydrofuran (THF), the THF is removed under reduced pressure prior to addition of solvent.

SMILES	Oxygen profile depth [1]	Concentration in propylene carbonate (PC) [2]
c1ccc(Pc2ccccc2)cc1 [Candidate 1, Diphenylphosphine]	ca. 75 µm	
CC(C)(C)P(CCCC[N+]1(C)CCOCC1)C(C)(C)C.[Br-] [Candidate 10, N-[4-(di-tert-butylphosphino)butyl]-N-methylmorpholinium bromide]		lower than 1 M

— patent EP3076168A1, “An electrochemical sensor” (Unisense Environment A/S, priority 2015, dated 2016)
